Results on eleven molecules are retold here after ChEMBL document CHEMBL5465560, “Selectivity Literature for EUbOPEN Chemogenomic Library” (2024).

Test [1] deals with RAC-alpha serine/threonine-protein kinase (Homo sapiens, UniProt P31749). Kind of test: Selectivity interaction (Kinase panel (KiNativ target engagement assay in Jurkat cells)) EUB0001635a AKT1. Format: cell-based. Particulars: at 1 µM.
In test [2] the target is DNA-dependent protein kinase catalytic subunit (Homo sapiens) (UniProt P78527). Kind of test: Selectivity interaction (Kinase panel (KiNativ target engagement assay in Jurkat cells)) EUB0001635a PRKDC. Format: cell-based. The following applies: Selectivity number of off-targets 0.0, Selectivity number of targets 233.0, Source Knowledge https://www.sciencedirect.com/science/article/pii/S2451945619300674?via%3Dihub, at 1 µM.

The target in test [3] is Tyrosine-protein kinase Blk (Homo sapiens) (UniProt P51451). Particulars: at 10 µM.
Sequence of Tyrosine-protein kinase Blk (Homo sapiens) (P51451 2-505 limits assumed): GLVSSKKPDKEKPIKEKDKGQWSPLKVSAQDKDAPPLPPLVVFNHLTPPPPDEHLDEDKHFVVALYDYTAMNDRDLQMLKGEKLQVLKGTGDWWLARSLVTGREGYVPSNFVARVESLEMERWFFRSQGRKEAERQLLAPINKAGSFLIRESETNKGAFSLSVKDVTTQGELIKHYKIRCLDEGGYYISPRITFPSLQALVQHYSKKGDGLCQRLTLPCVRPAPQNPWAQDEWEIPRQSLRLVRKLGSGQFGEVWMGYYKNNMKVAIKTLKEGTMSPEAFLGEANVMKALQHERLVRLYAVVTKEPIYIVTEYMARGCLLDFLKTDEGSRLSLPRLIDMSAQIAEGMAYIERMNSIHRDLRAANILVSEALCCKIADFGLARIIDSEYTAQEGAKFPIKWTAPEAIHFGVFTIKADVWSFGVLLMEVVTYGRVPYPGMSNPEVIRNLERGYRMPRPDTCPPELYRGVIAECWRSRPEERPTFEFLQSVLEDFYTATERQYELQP
Test [4] has as its target T1, Muscle, skeletal receptor tyrosine-protein kinase (Homo sapiens) (UniProt O15146).
T1 sequence (whole entry): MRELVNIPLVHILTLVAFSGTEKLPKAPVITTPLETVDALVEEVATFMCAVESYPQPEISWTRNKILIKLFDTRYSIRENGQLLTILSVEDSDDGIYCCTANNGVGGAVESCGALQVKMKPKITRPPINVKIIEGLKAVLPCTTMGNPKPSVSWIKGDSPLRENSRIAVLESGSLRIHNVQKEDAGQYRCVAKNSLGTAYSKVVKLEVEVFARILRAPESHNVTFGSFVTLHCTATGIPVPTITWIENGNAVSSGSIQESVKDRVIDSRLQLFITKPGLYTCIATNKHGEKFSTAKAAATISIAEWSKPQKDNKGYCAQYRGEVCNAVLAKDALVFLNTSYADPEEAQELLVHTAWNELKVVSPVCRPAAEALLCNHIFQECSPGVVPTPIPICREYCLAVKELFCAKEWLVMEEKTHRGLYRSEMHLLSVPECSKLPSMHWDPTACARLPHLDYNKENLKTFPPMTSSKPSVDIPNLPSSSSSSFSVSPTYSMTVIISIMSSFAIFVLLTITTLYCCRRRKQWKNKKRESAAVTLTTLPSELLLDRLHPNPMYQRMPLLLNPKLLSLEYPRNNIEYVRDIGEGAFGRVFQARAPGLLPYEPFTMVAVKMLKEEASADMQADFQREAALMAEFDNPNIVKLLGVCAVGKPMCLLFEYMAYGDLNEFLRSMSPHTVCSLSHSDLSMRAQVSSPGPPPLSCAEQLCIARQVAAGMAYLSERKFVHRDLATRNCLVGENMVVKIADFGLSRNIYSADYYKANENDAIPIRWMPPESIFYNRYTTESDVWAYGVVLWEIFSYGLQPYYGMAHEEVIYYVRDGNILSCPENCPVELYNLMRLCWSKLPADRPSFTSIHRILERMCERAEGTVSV
Kind of test: Selectivity interaction (KinomeScan (DiscoverX)) EUB0000666a MUSK. The following applies: at 10 µM.

The target of test [5] is Serine/threonine-protein kinase PAK 1 (Homo sapiens) (UniProt Q13153). The test can be described thus: Selectivity interaction (KinomeScan (DiscoverX)) EUB0000666a PAK1. Particulars: at 10 µM.
In test [6] the target is T2, Phosphorylase b kinase gamma catalytic chain, liver/testis isoform (Homo sapiens) (UniProt P15735).
T2 sequence (whole entry): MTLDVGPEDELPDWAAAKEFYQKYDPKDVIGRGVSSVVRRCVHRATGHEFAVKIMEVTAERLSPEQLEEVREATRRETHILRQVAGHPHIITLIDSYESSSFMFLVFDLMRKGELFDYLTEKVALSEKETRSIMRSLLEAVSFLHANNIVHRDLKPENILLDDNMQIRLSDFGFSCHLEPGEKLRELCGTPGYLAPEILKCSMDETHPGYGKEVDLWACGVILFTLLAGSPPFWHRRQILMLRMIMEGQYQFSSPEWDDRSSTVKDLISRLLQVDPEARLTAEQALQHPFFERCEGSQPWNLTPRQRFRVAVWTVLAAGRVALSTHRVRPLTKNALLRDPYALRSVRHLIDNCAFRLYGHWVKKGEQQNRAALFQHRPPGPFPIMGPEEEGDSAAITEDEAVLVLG
The test can be described thus: Selectivity interaction (KinomeScan (DiscoverX)) EUB0000229b PHKG2. The following applies: at 10 µM.

Test [7] concerns the target T3, Serine/threonine-protein kinase Nek3 (Homo sapiens) (UniProt P51956).
T3 sequence (whole entry): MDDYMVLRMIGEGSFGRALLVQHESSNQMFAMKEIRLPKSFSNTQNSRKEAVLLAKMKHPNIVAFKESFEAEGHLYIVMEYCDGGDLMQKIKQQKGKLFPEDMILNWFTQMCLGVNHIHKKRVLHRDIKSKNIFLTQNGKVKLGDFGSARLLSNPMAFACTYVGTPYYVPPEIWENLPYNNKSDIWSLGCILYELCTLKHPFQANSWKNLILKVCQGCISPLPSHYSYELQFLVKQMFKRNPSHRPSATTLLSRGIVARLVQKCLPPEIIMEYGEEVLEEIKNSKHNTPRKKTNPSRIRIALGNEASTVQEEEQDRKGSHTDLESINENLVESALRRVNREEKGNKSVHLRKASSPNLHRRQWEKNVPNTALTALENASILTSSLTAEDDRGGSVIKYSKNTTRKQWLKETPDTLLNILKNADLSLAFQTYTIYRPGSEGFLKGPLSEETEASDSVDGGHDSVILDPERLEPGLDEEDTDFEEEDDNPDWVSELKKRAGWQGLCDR
The test can be described thus: Selectivity interaction (KinomeScan (DiscoverX)) EUB0000655a NEK3. Particulars: at 10 µM.

The target of test [8] is Interferon-induced, double-stranded RNA-activated protein kinase (Homo sapiens) (UniProt P19525). The test can be described thus: Selectivity interaction (KinomeScan (DiscoverX)) EUB0000655a EIF2AK2. Particulars: at 10 µM.
The target in test [9] is Phosphorylase b kinase gamma catalytic chain, skeletal muscle/heart isoform (Homo sapiens) (UniProt Q16816). The test can be described thus: Selectivity interaction (KinomeScan (DiscoverX)) EUB0000655a PHKG1. Particulars: at 10 µM.
Test [10] deals with Glycogen synthase kinase-3 beta (Homo sapiens, UniProt P49841). The test can be described thus: Selectivity interaction (Enzymatic assay) EUB0001199aCl GSK3B.
Test [11] has as its target Serine/threonine-protein kinase PRP4 homolog (Homo sapiens) (UniProt Q13523). Kind of test: Selectivity interaction (ActivX KiNativ screen (kinase selectivity in THP-1 cell lysates)) EUB0000639a PRPF4. It counts as subcellular. Particulars: lysate, at 0.2 µM.
Test [12] has as its target Cell division cycle 7-related protein kinase (Homo sapiens, UniProt O00311). Kind of test: Selectivity interaction (Kinase panel (Enzyme activity assay)) EUB0000612a CDC7.
Test [13] deals with Tyrosine-protein kinase Srms (Homo sapiens) (UniProt Q9H3Y6). Kind of test: Selectivity interaction (KinomeScan (DiscoverX)) EUB0001049a SRMS. The following applies: at 1 µM.
Test [14] deals with Mitogen-activated protein kinase 11 (Homo sapiens) (UniProt Q15759). The test can be described thus: Selectivity interaction (KinomeScan (DiscoverX)) EUB0001049a MAPK11. The following applies: at 1 µM.
Sequence of Mitogen-activated protein kinase 11 (Homo sapiens) (Q15759 whole entry): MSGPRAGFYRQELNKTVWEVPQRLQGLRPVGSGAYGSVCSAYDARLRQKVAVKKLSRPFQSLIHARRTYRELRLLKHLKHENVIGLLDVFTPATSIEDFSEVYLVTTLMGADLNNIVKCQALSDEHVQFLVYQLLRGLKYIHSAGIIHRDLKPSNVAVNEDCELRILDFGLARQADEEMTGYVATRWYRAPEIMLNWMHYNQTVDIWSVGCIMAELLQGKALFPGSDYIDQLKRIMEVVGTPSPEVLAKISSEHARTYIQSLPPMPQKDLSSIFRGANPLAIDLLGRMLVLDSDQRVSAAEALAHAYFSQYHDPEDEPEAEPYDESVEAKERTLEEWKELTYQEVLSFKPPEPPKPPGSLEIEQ
Test [15] has as its target Mitogen-activated protein kinase kinase kinase 4 (Homo sapiens) (UniProt Q9Y6R4). Kind of test: Selectivity interaction (KinomeScan (DiscoverX)) EUB0000695a MAP3K4. Particulars: at 100 nM.
In test [16] the target is Fibroblast growth factor receptor 1 (Homo sapiens, UniProt P11362). Kind of test: Selectivity interaction (KinomeScan (DiscoverX)) EUB0000595a FGFR1. The following applies: at 10 µM.
Sequence of Fibroblast growth factor receptor 1 (P11362 22-822 limits assumed): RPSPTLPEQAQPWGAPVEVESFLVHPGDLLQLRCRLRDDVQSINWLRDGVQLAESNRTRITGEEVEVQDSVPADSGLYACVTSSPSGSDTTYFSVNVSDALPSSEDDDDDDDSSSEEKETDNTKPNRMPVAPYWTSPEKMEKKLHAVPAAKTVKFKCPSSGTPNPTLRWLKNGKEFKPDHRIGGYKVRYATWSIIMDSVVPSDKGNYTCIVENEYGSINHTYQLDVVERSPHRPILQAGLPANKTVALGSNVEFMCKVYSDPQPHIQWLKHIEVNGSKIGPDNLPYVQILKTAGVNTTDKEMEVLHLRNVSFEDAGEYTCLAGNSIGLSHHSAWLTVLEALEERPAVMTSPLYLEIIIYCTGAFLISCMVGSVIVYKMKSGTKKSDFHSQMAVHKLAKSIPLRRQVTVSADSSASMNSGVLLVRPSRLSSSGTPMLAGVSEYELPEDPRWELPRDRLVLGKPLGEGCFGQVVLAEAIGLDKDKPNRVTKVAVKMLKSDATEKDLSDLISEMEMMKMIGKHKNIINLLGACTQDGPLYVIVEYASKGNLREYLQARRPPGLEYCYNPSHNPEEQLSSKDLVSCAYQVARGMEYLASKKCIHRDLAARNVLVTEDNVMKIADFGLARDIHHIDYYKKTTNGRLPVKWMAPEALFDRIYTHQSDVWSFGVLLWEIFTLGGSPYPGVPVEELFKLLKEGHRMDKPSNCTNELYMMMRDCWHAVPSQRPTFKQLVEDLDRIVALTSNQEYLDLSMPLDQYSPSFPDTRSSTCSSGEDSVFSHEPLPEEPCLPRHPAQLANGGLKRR

Sequence of Serine/threonine-protein kinase PRP4 homolog (Homo sapiens) (Q13523 whole entry): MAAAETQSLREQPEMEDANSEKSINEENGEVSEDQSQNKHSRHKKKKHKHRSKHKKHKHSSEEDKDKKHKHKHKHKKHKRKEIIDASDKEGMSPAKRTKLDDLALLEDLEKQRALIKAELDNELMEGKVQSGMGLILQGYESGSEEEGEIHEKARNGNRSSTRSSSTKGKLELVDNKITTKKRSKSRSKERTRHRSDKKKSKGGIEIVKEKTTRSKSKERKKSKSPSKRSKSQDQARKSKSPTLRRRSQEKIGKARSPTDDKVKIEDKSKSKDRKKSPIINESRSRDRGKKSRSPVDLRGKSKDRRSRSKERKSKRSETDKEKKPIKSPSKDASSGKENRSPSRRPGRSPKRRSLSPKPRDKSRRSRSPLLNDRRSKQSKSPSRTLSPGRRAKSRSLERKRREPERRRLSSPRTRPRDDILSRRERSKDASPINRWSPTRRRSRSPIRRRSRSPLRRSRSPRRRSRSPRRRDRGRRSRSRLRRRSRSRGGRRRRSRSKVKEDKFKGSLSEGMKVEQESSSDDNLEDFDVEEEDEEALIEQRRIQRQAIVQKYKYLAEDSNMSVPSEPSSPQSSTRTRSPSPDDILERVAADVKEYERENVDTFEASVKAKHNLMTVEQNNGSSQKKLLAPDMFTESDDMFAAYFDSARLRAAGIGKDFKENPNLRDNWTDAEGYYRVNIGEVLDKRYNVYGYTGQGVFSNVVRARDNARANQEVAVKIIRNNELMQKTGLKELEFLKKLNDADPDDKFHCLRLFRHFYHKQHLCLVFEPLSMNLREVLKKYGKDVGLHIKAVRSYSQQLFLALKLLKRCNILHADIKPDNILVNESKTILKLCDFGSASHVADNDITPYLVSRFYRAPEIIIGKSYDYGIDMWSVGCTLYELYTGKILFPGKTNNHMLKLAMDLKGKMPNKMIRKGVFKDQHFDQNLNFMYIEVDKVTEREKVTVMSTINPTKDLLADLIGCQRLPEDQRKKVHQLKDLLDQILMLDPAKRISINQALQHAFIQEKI
Sequence of RAC-alpha serine/threonine-protein kinase (P31749 whole entry): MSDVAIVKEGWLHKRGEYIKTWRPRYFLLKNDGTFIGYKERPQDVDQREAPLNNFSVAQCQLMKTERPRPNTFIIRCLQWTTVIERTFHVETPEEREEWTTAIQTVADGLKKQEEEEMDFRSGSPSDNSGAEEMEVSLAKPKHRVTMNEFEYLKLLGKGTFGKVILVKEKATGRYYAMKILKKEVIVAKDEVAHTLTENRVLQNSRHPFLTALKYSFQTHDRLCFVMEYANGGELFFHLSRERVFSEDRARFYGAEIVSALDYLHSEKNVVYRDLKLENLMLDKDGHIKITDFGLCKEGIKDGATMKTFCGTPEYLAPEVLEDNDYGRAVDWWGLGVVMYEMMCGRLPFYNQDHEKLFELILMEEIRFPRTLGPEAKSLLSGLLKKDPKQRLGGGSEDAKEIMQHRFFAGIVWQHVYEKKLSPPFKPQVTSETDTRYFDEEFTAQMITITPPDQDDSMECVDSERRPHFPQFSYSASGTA
Sequence of Mitogen-activated protein kinase kinase kinase 4 (Homo sapiens) (Q9Y6R4 whole entry): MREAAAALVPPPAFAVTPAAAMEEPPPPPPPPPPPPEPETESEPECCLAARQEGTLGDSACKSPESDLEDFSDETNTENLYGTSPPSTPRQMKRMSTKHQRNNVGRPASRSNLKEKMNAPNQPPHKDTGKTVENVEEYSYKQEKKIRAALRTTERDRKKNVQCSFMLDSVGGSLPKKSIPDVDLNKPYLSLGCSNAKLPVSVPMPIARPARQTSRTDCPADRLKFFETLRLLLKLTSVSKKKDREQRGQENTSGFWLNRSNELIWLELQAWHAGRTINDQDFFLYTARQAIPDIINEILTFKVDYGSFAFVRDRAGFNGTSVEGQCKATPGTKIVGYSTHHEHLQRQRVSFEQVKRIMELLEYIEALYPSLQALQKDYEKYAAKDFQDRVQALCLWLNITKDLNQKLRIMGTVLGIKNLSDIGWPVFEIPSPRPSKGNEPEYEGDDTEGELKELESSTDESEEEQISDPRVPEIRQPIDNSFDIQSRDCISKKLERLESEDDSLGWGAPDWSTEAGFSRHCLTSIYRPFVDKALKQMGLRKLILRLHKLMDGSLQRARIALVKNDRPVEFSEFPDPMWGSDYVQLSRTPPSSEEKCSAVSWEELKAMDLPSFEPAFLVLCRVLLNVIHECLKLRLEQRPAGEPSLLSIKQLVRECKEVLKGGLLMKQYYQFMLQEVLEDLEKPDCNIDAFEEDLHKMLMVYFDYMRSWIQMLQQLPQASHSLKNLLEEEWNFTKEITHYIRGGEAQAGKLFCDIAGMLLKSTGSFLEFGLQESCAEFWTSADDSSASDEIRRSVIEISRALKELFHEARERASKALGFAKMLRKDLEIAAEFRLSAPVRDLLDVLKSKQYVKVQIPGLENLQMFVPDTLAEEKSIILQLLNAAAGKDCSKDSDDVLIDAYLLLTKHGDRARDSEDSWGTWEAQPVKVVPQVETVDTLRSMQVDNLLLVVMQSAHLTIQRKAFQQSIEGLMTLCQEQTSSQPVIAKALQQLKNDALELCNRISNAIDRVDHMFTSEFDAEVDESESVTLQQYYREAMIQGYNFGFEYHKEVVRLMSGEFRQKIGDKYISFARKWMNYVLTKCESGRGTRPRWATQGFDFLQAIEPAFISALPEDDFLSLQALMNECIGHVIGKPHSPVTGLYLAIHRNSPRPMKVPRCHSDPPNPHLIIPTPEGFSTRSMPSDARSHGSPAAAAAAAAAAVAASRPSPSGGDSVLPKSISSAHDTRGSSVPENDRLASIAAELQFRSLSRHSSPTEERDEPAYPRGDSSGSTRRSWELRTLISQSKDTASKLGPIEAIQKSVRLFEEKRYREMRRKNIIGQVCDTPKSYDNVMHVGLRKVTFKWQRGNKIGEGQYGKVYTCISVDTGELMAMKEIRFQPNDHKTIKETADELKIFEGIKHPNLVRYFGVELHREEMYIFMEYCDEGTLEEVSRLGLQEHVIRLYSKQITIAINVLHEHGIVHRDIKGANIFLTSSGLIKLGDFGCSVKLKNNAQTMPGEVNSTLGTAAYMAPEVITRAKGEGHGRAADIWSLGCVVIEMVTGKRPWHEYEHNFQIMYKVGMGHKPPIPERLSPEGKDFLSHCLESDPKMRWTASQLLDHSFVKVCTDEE

As to `C=CC(=O)Nc1ccc(C(=O)Nc2[nH]nc3c2CN(C(=O)N[C@H](CN(C)C)c2ccccc2)C3(C)C)cc1`, the % of engagement in test [1] is -9.9%; in test [2] it was -14%.

For `Cc1cc([C@@H](C)Nc2ccccc2C(=O)O)c2nc(N3CCOCC3)cc(=O)n2c1` [AZD-6482], the % of control in [3] is 99%.

Regarding `O=C(NOC[C@H](O)CO)c1ccc(F)c(F)c1Nc1ccc(I)cc1F`, the % of control was 68% in [4] and 100% in test [5].

As for `COc1cc(N(C)c2ccnc3ccc(C(F)(F)F)cc23)cc(OC)c1OC`, the % binding in [6] is 85%.

Take `CN(C)CCOc1ccc(-c2nc(-c3ccncc3)c(-c3ccc4c(c3)CC/C4=N\O)[nH]2)cc1`: the % of control is 71% in test [7], 61% in test [8] and 94% in test [9].

In the case of `CN1Cc2nccc(-c3cn(C)nc3-c3ccc(F)cc3)c2C1=O`, half-maximal inhibition in test [10] (IC50) required 10 µM.

With `CC[C@@H]1[C@H](F)C(=O)N[C@@H]1COc1nccc2cc(C(N)=O)c(OC)cc12` [ZIMLOVISERTIB], the % of inhibition in test [11] came to 28.3%.

In the case of `CCc1cccc(CC)c1NC(=O)c1nn(C)c2c1CCc1cnc(Nc3ccc(C(=O)NC4CCN(C)CC4)cc3OC(F)(F)F)nc1-2`, in [12], the IC50 (as a rule, the concentration needed to halve the response being measured) is greater than 10 µM.

In the case of `COc1cc(Nc2nc(C)cc(-c3cnn4nc(OC)ccc34)n2)cc(C(F)(F)F)c1`, the % of control in test [13] came out at 66%; in test [14] it was 100%.

The molecule `Cc1cc(F)c(C(=O)Nc2cccc(-c3nncn3C(C)C)n2)cc1-n1cnc(C2CC2)c1` yielded a % of control in [15] of 92%.

The molecule `COCC(=O)NC/C=C/c1ccc2ncnc(Nc3ccc(Oc4ccc(C)nc4)c(C)c3)c2c1` [CP-724714] registered a % of control in test [16] of 100%.
